Laboratory results: patent EP4759807A1, “PROTEOLYSIS TARGETING CHIMERA COMPOUND FOR DEGRADING IRAK4 AND USE THEREOF” (Shenzhen Zhongge Biological Technology Co., Ltd., priority 2023, dated 2025)
Read-outs that look alike come from different tables or passages of the source.

Biological target: T1, IRAK4 (Homo sapiens, UniProt Q9NWZ3)
T1 sequence (Q9NWZ3 1-460): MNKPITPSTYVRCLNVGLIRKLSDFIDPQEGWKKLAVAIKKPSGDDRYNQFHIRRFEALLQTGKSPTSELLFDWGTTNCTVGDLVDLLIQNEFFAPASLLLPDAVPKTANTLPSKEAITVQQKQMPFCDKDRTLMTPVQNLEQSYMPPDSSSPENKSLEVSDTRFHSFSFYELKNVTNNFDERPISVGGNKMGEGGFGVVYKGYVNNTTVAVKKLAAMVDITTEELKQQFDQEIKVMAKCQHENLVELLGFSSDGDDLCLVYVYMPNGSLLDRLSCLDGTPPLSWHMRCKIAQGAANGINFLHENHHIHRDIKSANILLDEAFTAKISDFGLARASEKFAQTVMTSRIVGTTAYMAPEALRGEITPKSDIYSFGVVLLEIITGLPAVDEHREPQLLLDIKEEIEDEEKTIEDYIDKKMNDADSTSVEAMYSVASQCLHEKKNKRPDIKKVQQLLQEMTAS
Assay: Hibit fluorescence detection of proteolysis (IRAK4-HiBiT in HEK293T cells)
Assay type: cell-based
Design: host or cells: HEK293T (ATCC)
Settings: for Dmax: HEK-293T
Method: Utilizing HiBiT tag technology, the HiBiT tag-containing sequence (Seq. ID. No. 1, Beijing Tsingke Biotech Co., Ltd.) was connected to the IRAK4 plasmid (Seq. ID. No. 2, Beijing Tsingke Biotech Co., Ltd.), and the plasmid was transfected into HEK293T cells (ATCC). […] The 6-well plate that was incubated overnight was taken out. After the plate was left at room temperature for 15 min, the obtained mixture was added dropwise to the 6-well plate. […] Culture was performed at 37°C and 5% CO2 for 24 h. The 384-well plate was taken out and equilibrated to room temperature. 40 µL of Nano-Glo® HiBiT Lytic Detection System (Promega N3030) was added to each well and incubated at room temperature for 15 min. […] Prism 9.3 software was used to perform fitting analysis for data, and non-linear fitting (non-liner inhibitor (Bell-shaped)) and four parameters (4 parameter) were used, and the parameters was as follows: Span1 = Plateau1−Dip [formula] Span2 = Plateau2−Dip [formula] Section1 = Span1/(1+10^(∧)((LogEC50_1−X)*nH1)) [formula] Section2 = Span2/(1+10^(∧)((X−LogEC50_2)*nH2)) [formula]
The equation was as follows: Y=Dip+Section1+Section2. • Seq. ID. No. 1 ([…]), other DNA, synthetic construct, sequence length 33; • Seq. ID. No. 2 [formula]

[1] = IRAK4-HiBiT, HEK293T cells, 24 h
[2] = IRAK4-HiBiT, HEK293T cells, 24 h, read-out: DC50

For `Cn1c(=O)n(C2CCC(=O)NC2=O)c2cccc(CN3CCC4(CC3)CCN(C[C@H]3CC[C@H](n5cc(-n6cc(-c7cnn8ccc(N9CCOCC9)nc78)nn6)c(C(F)F)n5)CC3)CC4)c21` (some centres unmarked) [Example 6], the Dmax was less than 60% and the DC50 [1] was less than 0.5 nM.
In the case of `Cn1c(=O)n(C2CCC(=O)NC2=O)c2cccc(C#CCOC3CCN(C[C@H]4CC[C@H](n5cc(-n6cc(-c7cnn8ccc(N9CCOCC9)nc78)nn6)c(C(F)F)n5)CC4)CC3)c21` (some centres unmarked) [Example 7], the Dmax is reported as 60 to 70% and the DC50 [1] is reported as less than 0.5 nM.
For `Cn1c(=O)n(C2CCC(=O)NC2=O)c2cccc(CC3CCN(CC4CCN(C[C@H]5CC[C@H](n6cc(-n7cc(-c8cnn9ccc(N%10CCOCC%10)nc89)nn7)c(C(F)F)n6)CC5)CC4)CC3)c21` (some centres unmarked) [Example 8], the Dmax was less than 60% and the DC50 [1] was greater than 5 nM.
Work on `Cn1c(=O)n(C2CCC(=O)NC2=O)c2cccc(NCC3CC4(CCN(C[C@H]5CC[C@H](n6cc(-n7cc(-c8cnn9ccc(N%10CCOCC%10)nc89)nn7)c(C(F)F)n6)CC5)CC4)C3)c21` (some centres unmarked) [Example 9] yielded a Dmax of less than 60% and a DC50 [1] of less than 0.5 nM.
`Cn1c(=O)n(C2CCC(=O)NC2=O)c2cccc(CNC3CC4(CCN(C[C@H]5CC[C@H](n6cc(-n7cc(-c8cnn9ccc(N%10CCOCC%10)nc89)nn7)c(C(F)F)n6)CC5)CC4)C3)c21` (some centres unmarked) [Example 10] gave a Dmax greater than 80% and a DC50 [1] of less than 0.5 nM.
Work on `Cn1c(=O)n(C2CCC(=O)NC2=O)c2cccc(C3CCN(C[C@H]4CC[C@H](n5cc(-n6cc(-c7cnn8ccc(N9CCOCC9)nc78)nn6)c(C(F)F)n5)CC4)CC3)c21` (some centres unmarked) [Example 11, 3-(4-(1-(((1r,4r)-4-(3-(difluoromethyl)-4-(4-(5-morpholinopyrazolo[1,5-a]pyrimidin-3-yl)-1H-1,2,3-triazol-1-yl)-1H-pyrazol-1-yl)cyclohexyl)methyl)piperidin-4-yl)-3-methyl-2-oxo-2,3-dihydro-1H-benzo[d]imidazol-1-yl)piperidine-2,6-dione] yielded a Dmax greater than 80% and a DC50 [1] of less than 0.5 nM.
For `Cn1c(=O)n(C2CCC(=O)NC2=O)c2cccc(CN3CC4(C3)CN(C[C@H]3CC[C@H](n5cc(-n6cc(-c7cnn8ccc(N9CCOCC9)nc78)nn6)c(C(F)F)n5)CC3)C4)c21` (some centres unmarked) [Example 12, 3-(4-((6-(((1r,4r)-4-(3-(difluoromethyl)-4-(4-(5-morpholinopyrazolo[1,5-a]pyrimidin-3-yl)-1H -1,2,3-triazol-1-yl)-1H-pyrazol-1-yl)cyclohexyl)methyl)-2,6-diazaspiro[3.3]hept-2-yl)methyl)-3-methyl-2-oxo-2,3-dihydro-1H-benzo[d]imidazol-1-yl)piperidine-2,6-dione], the Dmax was 70 to 80% and the DC50 [1] was less than 0.5 nM.
`Cn1c(=O)n(C2CCC(=O)NC2=O)c2cccc(CN3CC4(CCN(C[C@H]5CC[C@H](n6cc(-n7cc(-c8cnn9ccc(N%10CCOCC%10)nc89)nn7)c(C(F)F)n6)CC5)CC4)C3)c21` (some centres unmarked) [Example 13, 3-(4-((7-(((1r,4r)-4-(3-(difluoromethyl)-4-(4-(5-morpholinopyrazolo[1,5-a]pyrimidin-3-yl)-1H -1,2,3-triazol-1-yl)-1H-pyrazol-1-yl)cyclohexyl)methyl)-2,7-diazaspiro[3.5]nonan-2-yl)methyl)-3-methyl-2-oxo-2,3-dihydro-1H-benzo[d]imidazol-1-yl)piperidine-2,6-dione] gave a Dmax greater than 80% and a DC50 [1] of less than 0.5 nM.
`Cn1c(=O)n(C2CCC(=O)NC2=O)c2cccc(CN3CCC4(CC3)CN(C[C@H]3CC[C@H](n5cc(-n6cc(-c7cnn8ccc(N9CCOCC9)nc78)nn6)c(C(F)F)n5)CC3)C4)c21` (some centres unmarked) [Example 14] gave a Dmax of less than 60% and a DC50 [1] of 0.5 to 1 nM.
`CN(C[C@H]1CC[C@H](n2cc(-n3cc(-c4cnn5ccc(N6CCOCC6)nc45)nn3)c(C(F)F)n2)CC1)C1CCN(Cc2cccc3c2n(C)c(=O)n3C2CCC(=O)NC2=O)CC1` (some centres unmarked) [Example 15] showed a Dmax of less than 60% and a DC50 [1] of 1 to 5 nM.
Work on `Cn1c(=O)n(C2CCC(=O)NC2=O)c2cccc(CCC(=O)N3CCC4(CC3)CN(C[C@H]3CC[C@H](n5cc(-n6cc(-c7cnn8ccc(N9CCOCC9)nc78)nn6)c(C(F)F)n5)CC3)C4)c21` (some centres unmarked) [Example 16] yielded a Dmax of 60 to 70% and a DC50 [1] of less than 0.5 nM.
For `Cn1c(=O)n(C2CCC(=O)NC2=O)c2cccc(C#CC3CCN(C[C@H]4CC[C@H](n5cc(-n6cc(-c7cnn8ccc(N9CCOCC9)nc78)nn6)c(C(F)F)n5)CC4)CC3)c21` (some centres unmarked) [Example 17], the Dmax was 70 to 80% and the DC50 [1] was 1 to 5 nM.
With `Cn1c(=O)n(C2CCC(=O)NC2=O)c2cccc(NC(=O)N3CCC4(CCN(C[C@H]5CC[C@H](n6cc(-n7cc(-c8cnn9ccc(N%10CCOCC%10)nc89)nn7)c(C(F)F)n6)CC5)C4)CC3)c21` (some centres unmarked) [Example 18, 2-(((1r,4r)-4-(3-(difluoromethyl)-4-(4-(5-morpholinopyrazolo [1,5-a]pyrimidin-3-yl)-1H-1,2,3-triazol-1-yl)-1H-pyrazol-1-yl)cyclohexyl)methyl)-N-(1-(2,6-dioxopiperidin-3-yl)-3-methyl-2-oxo-2,3-dihydro-1H-benzo[d]imidazol-4-yl)-2,8-diazaspiro[4.5]decan-8-carboxamide] the Dmax was greater than 80% and the DC50 [2] was greater than 5 nM.
In the case of `Cn1c(=O)n(C2CCC(=O)NC2=O)c2cccc(C#CC3(O)CN(C[C@H]4CC[C@H](n5cc(-n6cc(-c7ccc8cc(C(N)=O)cnn78)nn6)c(C(F)F)n5)CC4)C3)c21` (some centres unmarked) [Example 19], the Dmax is reported as 70 to 80% and the DC50 [1] is reported as 0.5 to 1 nM.
For `CN(C[C@H]1CC[C@H](n2cc(-n3cc(-c4cnn5ccc(N6CCOCC6)nc45)nn3)c(C(F)F)n2)CC1)C1CCC(Nc2cccc3c2n(C)c(=O)n3C2CCC(=O)NC2=O)CC1` (some centres unmarked) [Example 20, 3-(4-((4-((((1r,4r)-4-(3-(difluoromethyl)-4-(4-(5-morpholinopyrazolo[1,5-a]pyrimidin-3-yl)-1H-1,2,3-triazol-1-yl)-1H-pyrazol-1-yl)cyclohexyl)methyl)(methyl)amino)cyclohexyl)amino)-3-methyl-2-oxo-2,3-dihydro-1H-benzo[d]imidazol-1-yl)piperidine-2,6-dione], the Dmax was greater than 80% and the DC50 [1] was less than 0.5 nM.
Work on `Cn1c(=O)n(C2CCC(=O)NC2=O)c2cccc(NC[C@H]3CC[C@@H](N(C)C[C@H]4CC[C@H](n5cc(-n6cc(-c7cnn8ccc(N9CCOCC9)nc78)nn6)c(C(F)F)n5)CC4)CC3)c21` (stereo partly drawn) [Example 21, 3-(4-((((1S,4s)-4-((((1r,4R)-4-(3-(difluoromethyl)-4-(4-(5-morpholinopyrazolo[1,5-a]pyrimidin-3-yl)-1H-1,2,3-triazol-1-yl)-1H-pyrazol-1-yl)cyclohexyl)methyl)(methyl)amino)cyclohexyl)methyl)amino)-3-methyl-2-oxo-2,3-dihydro-1H-benzo[d]imidazol-1-yl)piperidine-2,6-dione] yielded a Dmax of less than 60% and a DC50 [1] of less than 0.5 nM.
`Cc1c(/C=C2\C(=O)Nc3ccc(S(=O)(=O)Nc4ccc(F)cc4)cc32)[nH]c2cc(N3CCN(CC4CCN(c5ccc(C(=O)NC6CCC(=O)NC6=O)c(F)c5)CC4)CC3)ccc12` (centres unmarked) [Example 22, N-(2,6-dioxopiperidin-3-yl)-2-fluoro-4-(4-{[4-(2-{[(3Z)-5-[(4-fluorophenyl)sulfamoyl]-2-oxo-2,3-dihydro-1H-indol-3-ylidene]methyl}-3-methyl-1H-indol-6-yl)piperazin-1-yl]methyl}piperidin-1-yl)benzamide] gave a Dmax (IRAK4-HiBiT, HEK293T cells, 24 h, read-out: Dmax) of less than 60% and a DC50 [2] greater than 5 nM.
Work on `CN(C[C@H]1CC[C@H](n2cc(-n3cc(-c4cnn5ccc(N6CCOCC6)nc45)nn3)c(C(F)F)n2)CC1)C1CCC2(CC1)CC(Nc1cccc3c1n(C)c(=O)n3C1CCC(=O)NC1=O)C2` (some centres unmarked) [Example 23, 3-(4-((7-((((1r,4r)-4-(3-(difluoromethyl)-4-(4-(5-morpholinopyrazolo[1,5-a]pyrimidin-3-yl)-1H-1,2,3-triazol-1-yl)-1H-pyrazol-1-yl)cyclohexyl)methyl)(methyl)amino)spiro[3.5]nonan-2-yl)amino)-3-methyl-2-oxo-2,3-dihydro-1H-benzo[d]imidazol-1-yl)piperidine-2,6-dione] yielded a Dmax greater than 80% and a DC50 [1] of less than 0.5 nM.
`Cn1c(=O)n(C2CCC(=O)NC2=O)c2cccc(NC[C@H]3CC[C@H](N(C)C[C@H]4CC[C@H](n5cc(-n6cc(-c7cnn8ccc(N9CCOCC9)nc78)nn6)c(C(F)F)n5)CC4)CC3)c21` (stereo partly drawn) [Example 24, 3-(4-((((1R,4r)-4-((((1r,4R)-4-(3-(difluoromethyl)-4-(4-(5-morpholinopyrazolo[1,5-a]pyrimidin-3-yl)-1H-1,2,3-triazol-1-yl)-1H-pyrazol-1-yl)cyclohexyl)methyl)(methyl)amino)cyclohexyl)methyl)amino)-3-methyl-2-oxo-2,3-dihydro-1H-benzo[d]imidazol-1-yl)piperidine-2,6-dione] showed a Dmax of less than 60% and a DC50 [1] of less than 0.5 nM.
